Consider one compound from patent US20260184700A1, “PDK1 REGULATORY COMPOUND AND COMPOSITION CONTAINING THE SAME” (PROVIBIO CO., LTD., priority 2024, published 2026).

This data set deals with Human Bladder cancer cell, T24. Kind of data set: Relative cell viability, CCK-8, T24. It is filed as cell-based. The settings on record: 48 hours. How it is done:
Human-derived breast cancer cell line MCF-7, human-derived lung cancer cell line A549, human-derived colorectal cancer cell line HCT-116, human pancreatic cancer cell line AsPC-1, glioblastoma cell line A172, and melanoma cell line Malme-3M were obtained from the Korean Cell Bank. gastric cancer cell line SNU-719, and bladder cancer cell line T24 were cultured in RPMI-1640 medium containing 10% FBS.
Following stabilization, the cells were harvested using Trypsin-EDTA treatment, centrifuged at 1,200 rpm for 3 minutes, the supernatant was removed, and the cells were resuspended in the same medium. They were then seeded into a 96-well plate (Costar 96-well cell culture plate, Corning) at 100 μL per well, and the conditions were adjusted as indicated in Table 5.
The cells were cultured in a 5% CO2 incubator at 37° C. for 24 hours, and after stabilization of the cells, each plate was washed with 200 μL of PBS per well and treated with 50 μL of culture medium per well. […]
After that, 10 μL of CCK-8 was added to each well, and the plate was incubated again at 37° C. in a 5% CO2 incubator for 2 hours.
In other words, when the survival rate of untreated cells (DMSO) is set at 100%, the relative cell survival rate in each group treated with the drug at different concentrations is indicated.

Consider `CC1(C)CN(CCCCCCCCCCCCC(=O)Nc2nc(N)c3[nH]cnc3n2)CCO1` [Compound 11, 12-[4-(2,2-dimethylmorpholin-4-yl)]dodecyl-N-(6-aminopurine-2-yl)carboxamide], for which the “Relative cell viability (%)” value reads like this: (T24, 1 μM) 28.15%; (T24, 10 μM) 31.17%; (T24, 30 μM) 30.42%; (T24, 50 μM) 29.34%.
